According to patent publication US20190031613A1, “COMPOUNDS AND METHODS FOR THEIR USE IN THE TREATMENT OF MALARIA” (University of South Florida, priority 2016, published 2019):
Where two headings read alike, the source gives them in different places.

Key:
[1] = in vivo pharmacokinetics in mice (plasma, LC/MS-MS)
Protocol: Plasma exposure of prodrug 6e and parent compound 1b was determined following a single oral administration at 10 mg/kg and 3 mg/kg doses in 0.5% aqueous HEC (FIG. 5b).
Compounds 1b and its prodrug 6e were administered as a single dose (10 mg/kg) in 0.5% HEC using freshly prepared solution. Parent compound 1d and its prodrugs 6c and 6d were administered as a single dose of 50 mg/kg using the same vehicle. The blood was collected in prepared 5 ml syringe containing heparin via cardiac puncture and put into 15 mL conical tube on ice. Five mice were used per one time point at 0.5 h, 1 h, 2 h, 4 h, 8 h and 24 h […] plus 2 mice as a control (not-treated). The blood was then centrifuged for 5 min at 4000 rpm and plasma supernatant collected while avoiding the whole blood pellet at the bottom of the tube. The plasma was stored at −80° C. until the day of LC/MS-MS analysis.
Compound concentrations were quantitated in plasma samples by LC/MS-MS using an Agilent triple quadrupole instrument. Chromatographic separation was conducted using an Agilent HPLC with Phenomenex Kinetex C18 column (2.6 μm particle size, 50-4.6 mm i.d.) equipped with a Phenomenex Security Guard column. The mobile phase (1.25 mL/min) consisted of 0.05% formic acid in water and 0.05% formic acid in acetonitrile mixed using a linear gradient over 7 minutes. […] Plasma samples and calibration standards were prepared by protein precipitation with acetonitrile (3 parts acetonitrile to 1 part plasma), followed by centrifugation and analysis of the supernatant. Sample concentrations were determined by comparison to calibration standards prepared in blank plasma and assayed using the same conditions. The analytical lower limit of quantitation in plasma was typically 0.75-1.00 nM and accuracy, precision and recovery were within acceptable limits.
The plasma was first warmed up on ice for about 1 hour. Then 50 μL of plasma sample was precipitated with 150 μL of cold acetonitrile with internal standard (133 nM) P4Q-95^20) following by centrifugation at 4,000 rpm for 5 min at 4° C. and transfer˜150 μL of the supernatant to LCMS vial. The samples were analyzed using Agilent triple quadruple instrument in triplicates (5 mice×3 injections for each time point). The chemical structure of P4Q-95^20 is shown below:
The calibration curve for 1d was linear in 1 to 500 nM range so samples were diluted if needed to fit this linearity and then concentration recalculated accordingly. Calibration curve was run each time following the actual PK measurements and used for that particular compound.

P. berghei-GFP parasites = test: in vivo efficacy, modified Thompson test; design: species or system mice
Protocol: Prodrug 6d was orally tested for in vivo efficacy at four doses (0.3 mg/kg, 1.0 mg/kg, 3.0 mg/kg, and 10 mg/kg) in 0.5% aqueous HEC solution.

[2] = oral dose 3.0 mg/kg, 0.5% aqueous HEC
[3] = oral dose 100 mg/kg, 0.5% aqueous HEC
[4] = single PO dose 10 mg/kg on day 3 PI, 0.5% aqueous HEC
[5] = 10 mg/kg PO, three daily doses days 3-5 PI, 0.5% aqueous HEC
[6] = 10 mg/kg PO, three daily doses days 3-5 PI, 0.5% aqueous HEC, untreated 13
[7] = 50 mg/kg PO, three daily doses days 3-5 PI, 0.5% aqueous HEC
[8] = Table 3 control: 10 mg/kg PO, three daily doses days 3-5 PI

COc1cc2[nH]c(C)c(-c3ccc(Oc4ccc(OC(F)(F)F)cc4)cc3F)c(=O)c2cc1Cl [1b, 6-chloro-3-(2-fluoro-4-(4-(tfifluoromethoxy)phenoxy)phenyl)-7-methoxy-2-methyl-4(1H)-quinolone, reference compound]
AUC0→24 [1, 2]: 228 µmol·min/L | CL [1, 2]: 26.6 mL·kg/min | Vd [1, 2]: 19.6 L/kg | t1/2 apparent [1, 2]: 8.5 h | tmax [1, 2]: 4 h | AUC0→24 [1, 3]: 580 µmol·min/L | CL [1, 3]: 34.9 mL·kg/min | Vd [1, 3]: 44 L/kg | t1/2 apparent [1, 3]: 14.5 h | tmax [1, 3]: 8 h | Cmax ([1]; read-out: Cmax [μmol/L], oral dose 3.0 mg/kg, 0.5% aqueous HEC, parent in plasma): 0.31 µmol/L | Cmax ([1]; read-out: Cmax [μmol/L], oral dose 100 mg/kg, 0.5% aqueous HEC): 0.46 µmol/L | Cmax ([1]; single oral 3 mg/kg, 0.5% aqueous HEC): 0.31 µmol/L | Day of death (avg) (P. berghei-GFP parasites; [4]): 13 | Suppression [%] day 6 PI (P. berghei-GFP parasites; [4]): <1% | in vivo activity (P. berghei-GFP parasites; single dose of 10 mg/kg PO, 0.5% aqueous HEC): completely inactive

COc1cc2[nH]c(C)c(-c3ccc(C(F)(F)F)cc3)c(=O)c2cc1Cl [1d, 6-chloro-7-methoxy-2-methyl-3-(4-(trifluoromethyl)phenyl)-4(1H)-quinolone, reference compound]
AUC0→24 ([1]; mouse, in vivo, po, 50 mg/kg): 222 µmol·min/L | CL ([1]; mouse, in vivo, po, 50 mg/kg): 609.7 mL·kg/min | Cmax ([1]; mouse, in vivo, po, 50 mg/kg): 0.36 µmol/L | Vd ([1]; mouse, in vivo, po, 50 mg/kg): 377.7 L/kg | maximum plasma concentration of 1d ([1]; mouse, in vivo, po, 50 mg/kg): 365 nM | t1/2 apparent ([1]; mouse, in vivo, po, 50 mg/kg): 7.15 h | time of maximum plasma concentration ([1]; mouse, in vivo, po, 50 mg/kg): 2 h | tmax ([1]; mouse, in vivo, po, 50 mg/kg): 2 h | Suppression [%] day 6 PI (P. berghei-GFP parasites; [5]): 11% | Day of death (avg) (P. berghei-GFP parasites; [6]): 14 | Day of death (avg) (P. berghei-GFP parasites; [7]): 13 | Suppression [%] day 6 PI (P. berghei-GFP parasites; [7]): 10%

CNCCOC(=O)OCOc1c(-c2ccccc2C)c(C)nc2cc(OC)c(Cl)cc12.Cl [6a, 6-Chloro-7-methoxy-2-methyl-3-(o-tolyl)-4-(((2-(methylammonio)ethoxycarbonyl)oxy)methoxy)quinoline, chloride salt]
Suppression [%] day 6 PI (P. berghei-GFP parasites; [5]): 71% | Day of death (avg) (P. berghei-GFP parasites; [6]): 16 | Day of death (avg) (P. berghei-GFP parasites; [7]): 13 | Suppression [%] day 6 PI (P. berghei-GFP parasites; [7]): 46%

CCN(CC)Cc1cc(Nc2ccnc3cc(Cl)ccc23)ccc1O [ADQ, reference compound]
Suppression [%] day 6 PI (P. berghei-GFP parasites; [5]): >99% | Day of death (avg) (P. berghei-GFP parasites; [6]): 21 | Day of death (avg) (P. berghei-GFP parasites; [8]): 21 | Suppression [%] day 6 PI (P. berghei-GFP parasites; [8]): >99%
